# Values of other authors as cited in patent US20260297123A1, “METHODS FOR THE SYNTHESIS OF NUCLEOSIDE ANALOGUES AND NUCLEOSIDES ANALOGUES DERIVED THEREFROM” (SIMON FRASER UNIVERSITY, priority 2023, published 2026).
# Settings: DMSO (values in parentheses); values <0 and >35 extrapolated
row,SMILES,"pKa, (DMSO)"
1,O=C(NO)c1ccccc1,(13.7)
2,CN(O)C(=O)c1ccccc1,(16.5)
3,CN(C)C(=N)N(C)C,(13.5)
4,NNC(=O)c1ccccc1,(18.9)
5,Oc1ccccn1,(17.0)
6,CCOC(=O)C[N+](C)(C)C,(20.0)
7,CCOC(=O)CC(C)=O,(14.2)
8,N#CCC(=O)N1CCCC1,(17.2)
9,CS(=O)(=O)C(F)(F)F,(18.8)
10,CCCCS [BuSH],(17.0)
11,O=S(=O)(O)C(F)(F)F [CF3SO3H],(0.3)
12,F [HF],(15)
13,N#CN [NCNH2],(16.9)
14,CN(C)c1ccccc1 [PhN^+(Me)2H],(2.50)
15,"CC[N+](=O)[O-] [RNO2, R = CH2Me]",(16.7)
16,"O=[N+]([O-])Cc1ccccc1 [RNO2, R = CH2Ph]",(12.2)
17,"C[N+](=O)[O-] [RNO2, R = CH3]",(17.2)
18,"CC(C)[N+](=O)[O-] [RNO2, R = CHMe2]",(16.9)
19,"NC(=O)C(F)(F)F [drawing 41, R = CF3]",(17.2)
20,"CC(=O)Cc1ccccc1 [drawing 77, X = Ph]",(19.8)
21,"N#CCC(=O)c1ccccc1 [drawing 82, X = CN]",(10.2)
22,"O=C(Cc1ccccc1)c1ccccc1 [drawing 82, X = Ph]",(17.7)
23,"O=C(C[Se]c1ccccc1)c1ccccc1 [drawing 82, X = SePh]",(18.6)
24,O=[N+]([O-])c1ccc(O)cc1 [p-O2NC6H4OH],(10.8)
25,COc1ccc(O)cc1 [p-OMeC6H4OH],(19.1)

# The remaining lines, values ahead:
row,"pKa, (DMSO)",SMILES
1,(17.1),Oc1ccc2ccccc2c1 [2-napthol]
2,(17.9),OC(C(F)(F)F)C(F)(F)F [(CF3)2CHOH]
3,(17.9),CC(=O)NC(C)=O [Ac2NH]
4,(9.7),NS(=O)(=O)C(F)(F)F [CF3SO2NH2]
5,(0.9),Br [HBt]
6,(17.5),CS(N)(=O)=O [MeSO2NH2]
7,(12.9),CS(=O)(=O)Nc1ccccc1 [MeSO2NHPh]
8,(7.0),N#CC[P+](c1ccccc1)(c1ccccc1)c1ccccc1 [Ph3P^+CH2CN]
9,(6.2),O=C(C[P+](c1ccccc1)(c1ccccc1)c1ccccc1)c1ccccc1 [Ph3P^+CH2COPh]
10,(11.8),"O=[N+]([O-])CSc1ccccc1 [PhSCH2X, X = NO2]"
11,(11.0),"O=S(=O)(CSc1ccccc1)C(F)(F)F [PhSCH2X, X = SO2CF3]"
12,(16.1),NS(=O)(=O)c1ccccc1 [PhSO2NH2]
13,(17.2),NNS(=O)(=O)c1ccccc1 [PhSO2NHNH2]
14,(16.2),"O=[N+]([O-])CCc1ccccc1 [RNO2, R = CH2Bn]"
15,(13.3),"CC(=O)CC(C)=O [drawing 77, X = COCH3]"
16,(15.1),"CC(=O)CS(=O)(=O)c1ccccc1 [drawing 77, X = SO2Ph]"
17,(18.7),"CC(=O)CSc1ccccc1 [drawing 77, X = SPh]"
18,(12.7),"CC(=O)CC(=O)c1ccccc1 [drawing 82, X = COCH3]"
19,(13.3),"O=C(CC(=O)c1ccccc1)c1ccccc1 [drawing 82, X = COPh]"
20,(7.7),"O=C(C[N+](=O)[O-])c1ccccc1 [drawing 82, X = NO2]"
21,(14.6),"C[N+](C)(C)CC(=O)c1ccccc1 [drawing 82, X = N^+Me3]"
22,(11.4),"O=C(CS(=O)(=O)c1ccccc1)c1ccccc1 [drawing 82, X = SO2Ph]"
23,(16.9),"O=C(CSc1ccccc1)c1ccccc1 [drawing 82, X = SPh]"
24,(19.1),"N#CC1SCCCS1 [drawing 97, X = CN]"
25,(12.0),"N#CCS(=O)(=O)c1ccccc1 [drawing 107, X = CN]"
26,(12.5),"CC(=O)CS(=O)(=O)c1ccccc1 [drawing 107, X = COMe]"
27,(7.1),"O=[N+]([O-])CS(=O)(=O)c1ccccc1 [drawing 107, X = NO2]"
28,(19.4),"C[N+](C)(C)CS(=O)(=O)c1ccccc1 [drawing 107, X = N^+Me3]"

# Same assay, conditions: DMSO; first value listed
row,SMILES,"pKa, (DMSO) (first of several listed)"
1,C[S+](Cc1ccccc1)c1ccccc1 (centres unmarked),16.2
2,C1CN2CCN1CC2 [DABCO],2.97

# Same assay, conditions: DMSO; second value listed
row,SMILES,"pKa, (DMSO) (second of several listed)"
1,C[S+](Cc1ccccc1)c1ccccc1 (centres unmarked),16.3
2,C1CN2CCN1CC2 [DABCO],8.93
3,CN(C)c1cccc2cccc(N(C)C)c12 [Proton Spong ?],7.50

# Same assay, conditions: H2O; NH
row,"pKa, H2O (NH)",SMILES
1,8.88 (NH),O=C(NO)c1ccccc1

# Same assay, conditions: H2O; first value listed
row,SMILES,"pKa, H2O (first of several listed)"
1,NCCN,6.90
2,C1CN2CCN1CC2 [DABCO],2.97
3,[O]=[Cr](=[O])([OH])[OH] [H2CrO4],−0.98

# Next, values leading:
row,"pKa, H2O (first of several listed)",SMILES
1,1.9,O=S(O)O [H2SO3]
2,3.6,"O=C(O)O [drawing 16, X = HO]"

# Same assay, conditions: H2O; second value listed
row,SMILES,"pKa, H2O (second of several listed)"
1,NCCN,9.95
2,C1CN2CCN1CC2 [DABCO],8.82
3,[O]=[Cr](=[O])([OH])[OH] [H2CrO4],6.50
4,O=S(O)O [H2SO3],7.21
5,CN(C)c1cccc2cccc(N(C)C)c12 [Proton Spong ?],12.0

# Same assay, conditions: H2O; values <0 and >14 extrapolated
row,SMILES,"pKa, H2O"
1,ON=C(c1ccccc1)c1ccccc1,11.3
2,O=C1CCCN1,12
3,O=C1NC(=O)c2ccccc21,6.30
4,C1=Cc2ccccc2C1,20
5,CCOC(=O)CC(C)=O,11
6,CCC(=O)CC,19-20
7,Nc1ccc2ccccc2c1 [2-naphthal-N^+H3],4.16
8,OB(O)O [B(OH)3],9.23
9,CCCCS [BuSH],10-11
10,OCC(F)(F)F [CF3CH2OH],12.5
11,CC(=O)OO [CH3CO3H],8.2
12,CN(C)c1ccncc1 [DMAP],9.2
13,CCP(CC)CC [Et3P^+H],9.1
14,F [HF],3.17
15,O=NO [HNO2],3.29
16,O=[N+]([O-])O [HNO3],−1.3
17,OCl [HOCl],7.5
18,OO [HOOH],11.6
19,N#CS [HSCN],4.00

row,SMILES,"pKa, H2O"
1,CO [MeOH],15.54
2,COO [MeOOH],11.5
3,c1ccc(Nc2ccccc2)cc1 [Ph2N^+H2],0.78
4,CN(C)c1ccccc1 [PhN^+(Me)2H],5.20
5,"O=C(O)C(Cl)(Cl)Cl [drawing 16, X = CCl3]",0.65
6,"O=C(O)C(F)(F)F [drawing 16, X = CF3]",−0.25
7,"O=C(O)C[N+](=O)[O-] [drawing 16, X = CH2NO2]",1.68
8,"O=C(O)c1cccc(Cl)c1 [drawing 16, X = m-ClC6H4]",3.83
9,"O=C(O)c1cccc([N+](=O)[O-])c1 [drawing 16, X = m-O2NC6H4]",2.45
10,"C[N+](C)(C)c1ccccc1C(=O)O [drawing 16, X = o-(CH3)3N^+C6H4]",1.37
11,"C[N+](C)(C)c1ccc(C(=O)O)cc1 [drawing 16, X = p-(CH3)3N^+C6H4]",3.43
12,"O=C(O)c1ccc([N+](=O)[O-])cc1 [drawing 16, X = p-O2NC6H4]",3.44
13,"C=CC(=O)O [drawing 17, R = H]",4.25
14,"CC(=O)CC(C)=O [drawing 77, X = COCH3]",9
15,CC(C)O [i-PrOH],16.5
16,O=[N+]([O-])c1cccc(O)c1 [m-C2NC6H4OH],8.35
17,O=[N+]([O-])c1ccc(O)cc1 [p-O2NC6H4OH],7.14
18,COc1ccc(O)cc1 [p-OMeC6H4OH],10.20
19,CC(C)(C)O [t-BuOH],17

# Same assay, conditions: dmso
row,SMILES,"pKa, (DMSO)"
1,CCC(=O)Nc1ccccc1,(21.6)
2,CC(=O)C(C)(C)C,(27.7)
3,C1CCC2=NCCCN2CC1 [DBU],(12) (estimate)
